Experimental data as given in patent US20180155386A1, “PROGESTERONE ANTAGONISTS” (Evestra, Inc., priority 2011, published 2018).

How the values were obtained:
[1] = biological target: T1, progesterone receptor (Homo sapiens, UniProt P06401); conditions: background statement in words; cited from earlier work
T1 sequence (P06401 1-933): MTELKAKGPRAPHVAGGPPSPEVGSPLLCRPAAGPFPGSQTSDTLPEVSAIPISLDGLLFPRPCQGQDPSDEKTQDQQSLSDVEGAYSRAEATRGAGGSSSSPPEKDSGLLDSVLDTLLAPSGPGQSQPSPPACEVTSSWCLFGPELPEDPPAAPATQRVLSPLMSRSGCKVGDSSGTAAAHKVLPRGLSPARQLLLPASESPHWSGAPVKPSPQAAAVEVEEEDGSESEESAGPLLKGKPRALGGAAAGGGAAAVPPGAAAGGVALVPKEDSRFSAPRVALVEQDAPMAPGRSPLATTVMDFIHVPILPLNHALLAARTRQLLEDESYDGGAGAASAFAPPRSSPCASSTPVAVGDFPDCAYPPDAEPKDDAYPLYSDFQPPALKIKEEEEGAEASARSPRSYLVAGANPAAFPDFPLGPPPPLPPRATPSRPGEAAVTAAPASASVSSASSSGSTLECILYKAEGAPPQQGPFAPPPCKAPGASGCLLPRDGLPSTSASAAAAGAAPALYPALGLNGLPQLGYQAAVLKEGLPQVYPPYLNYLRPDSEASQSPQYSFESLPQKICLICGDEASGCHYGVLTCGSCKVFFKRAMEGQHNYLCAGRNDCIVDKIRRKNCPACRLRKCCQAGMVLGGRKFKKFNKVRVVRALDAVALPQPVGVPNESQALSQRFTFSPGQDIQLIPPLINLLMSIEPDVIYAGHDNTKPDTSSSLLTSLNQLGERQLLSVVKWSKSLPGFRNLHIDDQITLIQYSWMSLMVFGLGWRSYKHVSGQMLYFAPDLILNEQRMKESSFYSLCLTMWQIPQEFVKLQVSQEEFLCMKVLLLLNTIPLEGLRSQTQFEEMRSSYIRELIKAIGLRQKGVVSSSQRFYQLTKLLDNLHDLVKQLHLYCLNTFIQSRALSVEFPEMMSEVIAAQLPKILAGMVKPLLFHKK

[2] = biological target: T2, glucocorticoid receptor (Homo sapiens, UniProt P04150); conditions: background statement in words; cited from earlier work
T2 sequence (P04150 1-777): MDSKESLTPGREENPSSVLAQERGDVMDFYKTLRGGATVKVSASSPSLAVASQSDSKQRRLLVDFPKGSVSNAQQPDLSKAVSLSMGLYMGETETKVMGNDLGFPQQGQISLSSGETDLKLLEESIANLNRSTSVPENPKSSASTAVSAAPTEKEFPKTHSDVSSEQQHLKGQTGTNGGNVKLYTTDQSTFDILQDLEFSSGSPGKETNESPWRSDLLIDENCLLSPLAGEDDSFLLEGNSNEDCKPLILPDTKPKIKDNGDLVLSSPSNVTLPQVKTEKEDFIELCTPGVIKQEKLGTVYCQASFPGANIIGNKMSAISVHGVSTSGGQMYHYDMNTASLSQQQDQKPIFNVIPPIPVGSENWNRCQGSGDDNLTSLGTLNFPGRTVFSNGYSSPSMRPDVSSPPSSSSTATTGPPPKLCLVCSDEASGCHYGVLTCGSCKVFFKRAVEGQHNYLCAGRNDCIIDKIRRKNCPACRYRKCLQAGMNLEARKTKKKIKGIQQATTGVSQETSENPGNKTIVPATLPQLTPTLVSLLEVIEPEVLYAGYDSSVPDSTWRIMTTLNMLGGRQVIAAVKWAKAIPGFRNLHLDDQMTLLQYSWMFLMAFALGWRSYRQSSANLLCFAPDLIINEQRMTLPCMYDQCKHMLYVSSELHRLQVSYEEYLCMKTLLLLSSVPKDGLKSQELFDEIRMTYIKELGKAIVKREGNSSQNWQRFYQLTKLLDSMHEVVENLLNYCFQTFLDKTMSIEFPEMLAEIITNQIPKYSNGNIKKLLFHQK

[3] = tested on: uterine weight of non-pregnant guinea pigs; test: Uterine weights of guinea pigs; format: in vivo; conditions: 10 mg s.c. from day 10 of cycle; sacrifice day 18; untreated guinea pig 1.2 g; higher than 1.2 g indicates pure progesterone antagonistic activity
Method: 3 Non-pregnant guinea pigs in the luteal phase of the cycle will be treated with 10 mg of the compound subcutaneously beginning on day 10 of the cycle. Animals were sacrificed on day 18 after the start of the treatment and the uterine weights were obtained at the time of sacrifice. Comparisons will be made to onapristone-treated animals at 10 mg/animal/day s.c

[4] = tested on: human breast cancer cell line T47D; test: In vitro antiproliferative activity in human breast cancer cell line T47D (MTT); format: cell-based; conditions: 168 h, T47D cells, 7 days after cell seeding
Method: Cells from frozen stock were expanded in T75 cell culture flasks. For the experiment, cells in the logarithmic growth phase (70% confluent) were cultivated for 3 day without estradiol and then washed with PBS, detached by trypsination and suspended in 5 ml of fresh RPMI-1640 medium. Cells were centrifuged for 5 min at 1000 rpm and the pellet was resuspended in RPMI-1640 medium.
Cells were seeded in 96-well plates with a density of 5000 cells/well/in 0.18 mL RPMI-1640 medium. Cells were allowed to attach for 24 h. Visual control for viability at 24 h and cell culture medium change. At this time point, compounds were added in 20 μl to the final concentration. After 3 days medium and compounds where changed again. Finally, 7 days after cell seeding, 20 μl MTT-solution was added to each well and 4 h later the formed tetrazolium salt was measured with a photometer.

[5] = biological target: T3, progesterone receptor-LBD-UAS-bla HEK 293T cells (Homo sapiens, UniProt P06401); test: Progesterone Antagonist Screen (GeneBLAzer Beta-lactamase reporter, activated by control agonist R5020); format: cell-based; conditions: values relative to RU486, which is 100%; HEK 293T reporter cells, agonist R5020 at EC80
T3 construct: host or cells: HEK 293T
T3 sequence (P06401 679-913 limits assumed): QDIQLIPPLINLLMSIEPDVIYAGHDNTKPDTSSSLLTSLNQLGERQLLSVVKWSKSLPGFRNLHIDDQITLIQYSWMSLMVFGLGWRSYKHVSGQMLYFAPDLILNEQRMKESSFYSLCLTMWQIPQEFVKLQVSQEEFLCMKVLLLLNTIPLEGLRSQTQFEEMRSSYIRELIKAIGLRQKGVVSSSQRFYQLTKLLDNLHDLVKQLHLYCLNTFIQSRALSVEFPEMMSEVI
Method: Determination of the agonist/antagonist nature of the test compounds was carried out using Invitrogen's SelectScreen™ Cell-based nuclear receptor profiling service which uses the GeneBLAzer® Beta-lactamase reporter technology. Basically this assay uses a Beta-lactamase cDNA under transcriptional control of an Upstream Activator Sequence (UAS). The UAS is activated by the GAL4 transcription factor DNA binding domain (DBD), which is expressed as a fusion protein with the target receptor ligand binding domain (LBD). Upon ligand binding, the GAL4(DBD)-NR(LDB) binds to the UAS, which controls transcription of Beta-lactamase. Beta-lactamase cleaves a special engineered fluorescent substrate which results in a change in the measured fluorescence wavelength.
The generalized protocol used for the Progesterone Antagonist Screen, activated by control Agonist R5020 is as follows:
The progesterone receptor-LBD-UAS-bla HEK 293T cells are thawed and prepared as described above for the Agonist screen. 4 μL of a 10× serial dilution of control antagonist RU-486 (starting concentration, 100 nM) or test compounds are added to appropriate wells of a TC-Treated assay plate. 32 μL of cell suspension is added to the wells which is then pre-incubated at 37° C./5% CO2 in a humidified incubator with test compounds and control antagonist titration for 30 minutes. 4 μL of a 10× control agonist (see above) at the predetermined EC80 concentration is added to wells containing the control antagonist or test compounds. The plate is incubated for 16-24 hours at 37° C./5% CO2 in a humidified incubator. 8 μL of 1 μM Substrate Loading Solution is added to each well and the plate is incubated for 2 hours at room temperature. The plate is then read on a fluorescence plate reader (Tecan Safire).

SMILES: CC#C[C@]1(O)CC[C@H]2[C@@H]3CCC4=CC(=O)CCC4=C3[C@@H](c3ccc(N(C)C)cc3)C[C@@]21C [RU 486, Mifepristone]
- antiprogestagenic activity / progesterone antagonism [1]: potent progesterone antagonist
- antiglucocorticoid effects / glucocorticoid receptor antagonism [2]: overt glucocorticoid receptor antagonism
- Uterine Weights of Guinea Pigs Treated with antiprogestins (grams) [3]: 1.81 grams

SMILES: CC(=O)c1ccc([C@H]2C[C@@]3(C)[C@@H](CC[C@@]3(O)C(F)(F)C(F)(F)F)[C@@H]3CCC4=CC(=O)CCC4=C32)cc1 [ZK 230211, Lonaprisan, reference compound]
- IC50 [4]: 0.3 nM
- Emax [5]: 81%
- antiprogestagenic activity / progesterone antagonism [1]: high antiprogestagenic activity
- antiglucocorticoid effects / glucocorticoid receptor antagonism [2]: only marginal antiglucocorticoid effects
